Source: patent US6358885B1, “Substituted phenylheterocyclic herbicides” (Mississippi State University, priority 1992, dated 2002)

How the values were obtained:
Assay in all cases: Test B preemergence/postemergence greenhouse plant response rating 0 to 10
morningglory = type: in vivo, Ipomoea hederacea; conditions: for Plant response rating, Morningglory: 0 to 10 scale
Excerpt: (§1) Seeds of barley (Hordeum vulgare), barnyardgrass (Echinochloa crus-galli), bedstraw (Galium aparine), blackgrass (Alopecurus myosuroides), […] (Bromus secalinus), chickweed (Stellaria media), cocklebur (Xanthium pensylvanicum), corn (Zea mays), cotton (Gossypium hirsutum), crabgrass (Digitaria spp.), giant foxtail (Setaria faberii), lambsquarters (Chenopodium album), morningglory (Ipomoea hederacea), rape (Brassica napus), rice (Oryza sativa), sorghum (Sorghum bicolor), soybean (Glycine max), sugar beet (Beta vulgaris), velvetleaf (Abutilon theophrasti), wheat (Triticum aestivum), wild buckwheat (Polygonum convolvulus), and wild oat (Avena fatua) and purple nutsedge. (Cyperus rotundus) tubers were planted and treated preemergence with test chemicals dissolved in a non-phytotoxic solvent. At the same time, these crop and weed species were also treated with postemergence applications of test chemicals. Plants ranged in height from two to eighteen cm (one to four leaf stage) for postemergence treatments. Treated plants and controls were maintained in a greenhouse for twelve to sixteen days, after which all species were compared to controls and visually evaluated. […] A dash (-) response means no test result.

rape = type: in vivo, Brassica napus; conditions: for Plant response rating, Rape: 0 to 10 scale
Excerpt: as §1

corn = type: in vivo, Zea mays; conditions: for Plant response rating, Corn: 0 to 10 scale
Excerpt: as §1

wheat = type: in vivo, Triticum aestivum; conditions: for Plant response rating, Wheat: 0 to 10 scale
Excerpt: as §1

rice = type: in vivo, Oryza sativa; conditions: for Plant response rating, Rice: 0 to 10 scale
Excerpt: as §1

purple nutsedge = type: in vivo, Cyperus rotundus; conditions: for Plant response rating, Nutsedge: 0 to 10 scale
Excerpt: as §1

lambsquarters = type: in vivo, Chenopodium album; conditions: for Plant response rating, Lambsquarter: 0 to 10 scale
Excerpt: as §1

wild oat = type: in vivo, Avena fatua; conditions: for Plant response rating, Wild oat: 0 to 10 scale
Excerpt: as §1

cotton = type: in vivo, Gossypium hirsutum; conditions: for Plant response rating, Cotton: 0 to 10 scale
Excerpt: as §1

cocklebur = type: in vivo, Xanthium pensylvanicum; conditions: for Plant response rating, Cocklebur: 0 to 10 scale
Excerpt: as §1

chickweed = type: in vivo, Stellaria media; conditions: for Plant response rating, Chickweed: 0 to 10 scale
Excerpt: as §1

velvetleaf = type: in vivo, Abutilon theophrasti; conditions: for Plant response rating, Velvetleaf: 0 to 10 scale
Excerpt: as §1

giant foxtail = type: in vivo, Setaria faberii; conditions: for Plant response rating, Giant foxtail: 0 to 10 scale
Excerpt: as §1

soybean = type: in vivo, Glycine max; conditions: for Plant response rating, Soybean: 0 to 10 scale
Excerpt: as §1

barley = type: in vivo, Hordeum vulgare; conditions: for Plant response rating, Barley: 0 to 10 scale
Excerpt: as §1

barnyardgrass = type: in vivo, Echinochloa crus-galli; conditions: for Plant response rating, Barnyardgrass: 0 to 10 scale
Excerpt: as §1

blackgrass = type: in vivo, Alopecurus myosuroides; conditions: for Plant response rating, Blackgrass: 0 to 10 scale
Excerpt: as §1

crabgrass = type: in vivo, Digitaria spp.; conditions: for Plant response rating, Crabgrass: 0 to 10 scale
Excerpt: as §1

sorghum = type: in vivo, Sorghum bicolor; conditions: for Plant response rating, Sorghum: 0 to 10 scale
Excerpt: as §1

wild buckwheat = type: in vivo, Polygonum convolvulus; conditions: for Plant response rating, Wild buckwheat: 0 to 10 scale
Excerpt: as §1

cheatgrass = type: in vivo, Bromus secalinus; conditions: for Plant response rating, Cheatgrass: 0 to 10 scale
Excerpt: as §1

bedstraw = type: in vivo, Galium aparine; conditions: for Plant response rating, Bedstraw: 0 to 10 scale
Excerpt: as §1

sugar beet = type: in vivo, Beta vulgaris; conditions: for Plant response rating, Sugar beet: 0 to 10 scale
Excerpt: as §1

O=C1COc2cc(F)c(-c3nn4c(c3Br)CCCC4)cc2N1 [Compound 80]
7: Plant response rating (0 to 10 scale), Wild oat (wild oat; PREEMERGENCE, Rate 200 g/ha) | Plant response rating, Chickweed (chickweed; Rate 200 g/ha, POSTEMERGENCE) | Plant response rating, Giant foxtail (giant foxtail; Rate 200 g/ha, POSTEMERGENCE)
3: Plant response rating (0 to 10 scale), Chickweed (chickweed; PREEMERGENCE, Rate 200 g/ha) | Plant response rating, Barley (barley; POSTEMERGENCE, Rate 50 g/ha) | Plant response rating, Blackgrass (blackgrass; POSTEMERGENCE, Rate 50 g/ha) | Plant response rating (0 to 10 scale), Blackgrass (blackgrass; PREEMERGENCE, Rate 200 g/ha) | Plant response rating (0 to 10 scale), Crabgrass (crabgrass; PREEMERGENCE, Rate 200 g/ha) | Plant response rating, Wild buckwheat (wild buckwheat; PREEMERGENCE, Rate 50 g/ha) | Plant response rating (0 to 10 scale), Wild buckwheat (wild buckwheat; PREEMERGENCE, Rate 200 g/ha) | Plant response rating (0 to 10 scale), Cheatgrass (cheatgrass; PREEMERGENCE, Rate 200 g/ha)
0: Plant response rating, Corn (corn; PREEMERGENCE, Rate 50 g/ha) | Plant response rating (0 to 10 scale), Corn (corn; PREEMERGENCE, Rate 200 g/ha) | Plant response rating, Wheat (wheat; PREEMERGENCE, Rate 50 g/ha) | Plant response rating, Nutsedge (purple nutsedge; PREEMERGENCE, Rate 50 g/ha) | Plant response rating (0 to 10 scale), Nutsedge (purple nutsedge; PREEMERGENCE, Rate 200 g/ha) | Plant response rating, Cotton (cotton; PREEMERGENCE, Rate 50 g/ha) | Plant response rating (0 to 10 scale), Cotton (cotton; PREEMERGENCE, Rate 200 g/ha) | Plant response rating, Cocklebur (cocklebur; PREEMERGENCE, Rate 50 g/ha) | Plant response rating (0 to 10 scale), Cocklebur (cocklebur; PREEMERGENCE, Rate 200 g/ha) | Plant response rating, Chickweed (chickweed; PREEMERGENCE, Rate 50 g/ha) | Plant response rating, Giant foxtail (giant foxtail; PREEMERGENCE, Rate 50 g/ha) | Plant response rating, Soybean (soybean; PREEMERGENCE, Rate 50 g/ha) | Plant response rating (0 to 10 scale), Soybean (soybean; PREEMERGENCE, Rate 200 g/ha) | Plant response rating, Barley (barley; PREEMERGENCE, Rate 50 g/ha) | Plant response rating (0 to 10 scale), Barley (barley; PREEMERGENCE, Rate 200 g/ha) | Plant response rating, Barnyardgrass (barnyardgrass; PREEMERGENCE, Rate 50 g/ha) | Plant response rating, Blackgrass (blackgrass; PREEMERGENCE, Rate 50 g/ha) | Plant response rating, Crabgrass (crabgrass; PREEMERGENCE, Rate 50 g/ha) | Plant response rating, Sorghum (sorghum; PREEMERGENCE, Rate 50 g/ha) | Plant response rating (0 to 10 scale), Sorghum (sorghum; PREEMERGENCE, Rate 200 g/ha) | Plant response rating, Bedstraw (bedstraw; PREEMERGENCE, Rate 50 g/ha)
6: Plant response rating, Rice (rice; POSTEMERGENCE, Rate 50 g/ha) | Plant response rating, Barnyardgrass (barnyardgrass; POSTEMERGENCE, Rate 50 g/ha) | Plant response rating (0 to 10 scale), Barnyardgrass (barnyardgrass; PREEMERGENCE, Rate 200 g/ha) | Plant response rating, Blackgrass (blackgrass; Rate 200 g/ha, POSTEMERGENCE) | Plant response rating, Crabgrass (crabgrass; Rate 200 g/ha, POSTEMERGENCE) | Plant response rating, Sorghum (sorghum; Rate 200 g/ha, POSTEMERGENCE) | Plant response rating, Cheatgrass (cheatgrass; Rate 200 g/ha, POSTEMERGENCE)
2: Plant response rating (0 to 10 scale), Wheat (wheat; PREEMERGENCE, Rate 200 g/ha) | Plant response rating, Rice (rice; PREEMERGENCE, Rate 50 g/ha) | Plant response rating, Nutsedge (purple nutsedge; POSTEMERGENCE, Rate 50 g/ha) | Plant response rating, Wild oat (wild oat; PREEMERGENCE, Rate 50 g/ha) | Plant response rating (0 to 10 scale), Giant foxtail (giant foxtail; PREEMERGENCE, Rate 200 g/ha) | Plant response rating, Cheatgrass (cheatgrass; PREEMERGENCE, Rate 50 g/ha) | Plant response rating (0 to 10 scale), Bedstraw (bedstraw; PREEMERGENCE, Rate 200 g/ha)
4: Plant response rating, Rape (rape; PREEMERGENCE, Rate 50 g/ha) | Plant response rating, Corn (corn; POSTEMERGENCE, Rate 50 g/ha) | Plant response rating, Wheat (wheat; POSTEMERGENCE, Rate 50 g/ha) | Plant response rating, Wheat (wheat; Rate 200 g/ha, POSTEMERGENCE) | Plant response rating (0 to 10 scale), Rice (rice; PREEMERGENCE, Rate 200 g/ha) | Plant response rating, Nutsedge (purple nutsedge; Rate 200 g/ha, POSTEMERGENCE) | Plant response rating, Wild oat (wild oat; POSTEMERGENCE, Rate 50 g/ha) | Plant response rating, Chickweed (chickweed; POSTEMERGENCE, Rate 50 g/ha) | Plant response rating, Giant foxtail (giant foxtail; POSTEMERGENCE, Rate 50 g/ha) | Plant response rating, Barley (barley; Rate 200 g/ha, POSTEMERGENCE) | Plant response rating, Crabgrass (crabgrass; POSTEMERGENCE, Rate 50 g/ha) | Plant response rating, Sorghum (sorghum; POSTEMERGENCE, Rate 50 g/ha)
10: Plant response rating, Morningglory (morningglory; POSTEMERGENCE, Rate 50 g/ha) | Plant response rating (0 to 10 scale), Morningglory (morningglory; PREEMERGENCE, Rate 200 g/ha) | Plant response rating, Morningglory (morningglory; Rate 200 g/ha, POSTEMERGENCE) | Plant response rating, Rape (rape; POSTEMERGENCE, Rate 50 g/ha) | Plant response rating (0 to 10 scale), Rape (rape; PREEMERGENCE, Rate 200 g/ha) | Plant response rating, Rape (rape; Rate 200 g/ha, POSTEMERGENCE) | Plant response rating, Lambsquarter (lambsquarters; POSTEMERGENCE, Rate 50 g/ha) | Plant response rating, Lambsquarter (lambsquarters; PREEMERGENCE, Rate 50 g/ha) | Plant response rating (0 to 10 scale), Lambsquarter (lambsquarters; PREEMERGENCE, Rate 200 g/ha) | Plant response rating, Lambsquarter (lambsquarters; Rate 200 g/ha, POSTEMERGENCE) | Plant response rating, Cotton (cotton; POSTEMERGENCE, Rate 50 g/ha) | Plant response rating, Cotton (cotton; Rate 200 g/ha, POSTEMERGENCE) | Plant response rating, Cocklebur (cocklebur; Rate 200 g/ha, POSTEMERGENCE) | Plant response rating (0 to 10 scale), Velvetleaf (velvetleaf; PREEMERGENCE, Rate 200 g/ha) | Plant response rating, Velvetleaf (velvetleaf; Rate 200 g/ha, POSTEMERGENCE) | Plant response rating, Wild buckwheat (wild buckwheat; POSTEMERGENCE, Rate 50 g/ha) | Plant response rating, Wild buckwheat (wild buckwheat; Rate 200 g/ha, POSTEMERGENCE) | Plant response rating, Bedstraw (bedstraw; Rate 200 g/ha, POSTEMERGENCE) | Plant response rating, Sugar beet (sugar beet; POSTEMERGENCE, Rate 50 g/ha) | Plant response rating, Sugar beet (sugar beet; Rate 200 g/ha, POSTEMERGENCE)
8: Plant response rating, Rice (rice; Rate 200 g/ha, POSTEMERGENCE) | Plant response rating, Soybean (soybean; POSTEMERGENCE, Rate 50 g/ha) | Plant response rating, Barnyardgrass (barnyardgrass; Rate 200 g/ha, POSTEMERGENCE) | Plant response rating, Bedstraw (bedstraw; POSTEMERGENCE, Rate 50 g/ha) | Plant response rating, Sugar beet (sugar beet; PREEMERGENCE, Rate 50 g/ha)
5: Plant response rating, Morningglory (morningglory; PREEMERGENCE, Rate 50 g/ha) | Plant response rating, Corn (corn; Rate 200 g/ha, POSTEMERGENCE) | Plant response rating, Wild oat (wild oat; Rate 200 g/ha, POSTEMERGENCE) | Plant response rating, Cheatgrass (cheatgrass; POSTEMERGENCE, Rate 50 g/ha)
9: Plant response rating, Cocklebur (cocklebur; POSTEMERGENCE, Rate 50 g/ha) | Plant response rating, Velvetleaf (velvetleaf; POSTEMERGENCE, Rate 50 g/ha) | Plant response rating, Velvetleaf (velvetleaf; PREEMERGENCE, Rate 50 g/ha) | Plant response rating, Soybean (soybean; Rate 200 g/ha, POSTEMERGENCE) | Plant response rating (0 to 10 scale), Sugar beet (sugar beet; PREEMERGENCE, Rate 200 g/ha)
